Results taken from patent US8173648B2 (priority 2008, dated 2012).
Where two headings read alike, the source gives them in different places.

Legend:
[1] = target: T1, monoamine oxidase B (MAO-B) (Rattus norvegicus, UniProt P19643); assay: biochemical
T1 construct: from tissue; host or cells: brain cortex of male F344/N rats (supernatant of homogenate)
T1 sequence (P19643 1-520): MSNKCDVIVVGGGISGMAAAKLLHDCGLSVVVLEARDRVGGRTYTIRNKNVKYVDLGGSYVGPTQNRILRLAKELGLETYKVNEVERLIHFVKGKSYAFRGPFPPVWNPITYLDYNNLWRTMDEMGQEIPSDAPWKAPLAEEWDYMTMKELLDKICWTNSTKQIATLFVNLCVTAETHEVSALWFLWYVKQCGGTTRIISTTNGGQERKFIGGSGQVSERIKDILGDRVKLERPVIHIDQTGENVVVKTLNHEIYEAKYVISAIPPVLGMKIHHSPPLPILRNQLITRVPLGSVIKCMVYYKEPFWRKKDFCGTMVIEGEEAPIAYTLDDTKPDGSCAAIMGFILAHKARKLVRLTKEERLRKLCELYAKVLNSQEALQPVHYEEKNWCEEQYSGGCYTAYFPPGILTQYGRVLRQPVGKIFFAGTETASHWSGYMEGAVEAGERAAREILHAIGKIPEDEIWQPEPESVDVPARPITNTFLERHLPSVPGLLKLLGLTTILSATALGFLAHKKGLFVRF
Procedure: At first, monoamine oxidase B (MAO-B) was purified from rat brain cortex, and then activity inhibition assay of these derivatives against monoamine oxidase B(MAO-B) was carried out.
MAO-B enzyme preparations were prepared from brain cortex of decapitalized male F344/N rats. The brain cortex in PBS solution was frozen with liquid nitrogen and kept at −80° C. for 3 days. The homogenate was then obtained by centrifugation (14,000 rpm, 10 min) of the frontal cortex in 0.1 M potassium phosphate buffer (pH 7.4) at 4° C. and the supernatant was taken as the enzyme source for MAO. A standard solution containing 0.1 M potassium phosphate buffer and albumin were prepared in different concentration grades. Ten microliters of each solution was taken and added with 200 μl of BCA kit. Following the similar method, the above supernatant from brain cortex was diluted and 10 μl of stock solution taken and added with […] of BCA kit. Both standard and sample solutions were incubated at 37° C. for 30 min. 200 μl of the solutions was added to each well of a 96-well microplate and the protein contents were measured with a fluorescence microplate reader by determining optical density at 595 nm.
To the supernatant (protein content, 80 μg/ml) in 96-well microplate was added with 1 U/ml HRP (Horseradish Peroxidase), […] benzylamine, and 50 μM Amplex red in 0.1 M potassium phosphate buffer followed by the tested sample, which was prepared in 200 μg/ml in DMSO as stock solution. These mixtures were incubated at room temperature for 60 min and optical density was determined by a fluorometric reader. Its IC50 was calculated then with the following formula. IC50: median inhibitory concentration, which is defined in this example as the concentration of a inhibitor that is needed for inhibiting 50% activity of an enzyme. Inhibition (%)=1−[(OD595 of sample/protein−[…] of sample)/OD595 of blank]×100% • OD595: Optical density at 595 nm (wavelength) • protein: protein content of control 3. Statistical Analysis

ERK1/2 = assay: Assay for extracellular signal-regulated kinase (ERK) activity (Western blot p-ERK1/2 / ERK1/2); format: cell-based, Human; details: for Activation of ERK1/2 (p-ERK/ERK, (%)): 10 μM, T-20 cells, positive control = 100, mean ± SD of three experiments
Procedure: Cell line used in this example were same as those described in example 2.
The activation of the ERKs was measured by using anti-phospho-ERK1/2 and anti-ERK1/2 antibodies (Cell Signaling Technology). In brief, T-20 cells were grown in six-well plates at 5×10^5 cells/well and incubated with culture medium at 37° C. for 18 hours, followed by an additional incubation with culture medium containing 1 μg/ml of tetracycline at 37° C. for 18 hours. Before the experiments, we replaced the medium with DMEM containing 0.5% FBS and treated it with the tested compounds (10 μM each). After treatment, reactions were stopped by placing cells on ice and aspirating off the medium. Cells were harvested and lysed in 50 mM Tris-HCl (pH 8.0), 150 mM NaCl, 5 mM EDTA, 1 mM sodium orthovanadate, 1% Triton X-100, and protease- and phosphatase-inhibitor cocktails. Protein concentration was determined by the BCA assay (Pierce). Each cell lysate, which contained 50 μg proteins, was separated on 12% SDS-polyacrylamide electrophoresis gels, immunoblotted, and identified using anti-phospho-ERK1/2 or anti-ERK1/2 antibody. In this example, T-20 cell line treated with medium containing 1% DMSO and 1 μg/ml of tetracycline was used as positive control group; T-20 cell line treated with medium containing various compounds (10 μM), 1% DMSO and 1 μg/ml of tetracycline were used as test groups for different compounds.

γ-secretase = target: T2, γ-secretase (Homo sapiens, UniProt P49768); assay: Cell-based γ-secretase assay (luciferase reporter) in T-20 cell line
T2 construct: measure the activity of γ-secretase in T-20 cell line; endogenous in cells; host or cells: T-20 (T-REx293/HEK293 stably transfected with C99-GV/TO and Gal4-Luc)
Procedure: In this example, a quantitative cell-based assay described in reference (2) and (3) was employed to measure the activity of γ-secretase in T-20 cell line.
Cell lysis and the addition of reagents for luciferase assay were completed simultaneously using the Steady-Glo luciferase assay system (Promega) as described in the manufacturer's instructions. Luciferase signals were determined by a VictorLight microplate luminometer (PerkinElmer).
A quantitative cell-based γ-secretase assay in T-20 cell line described in reference (2) was employed to measure the activity of γ-secretase. In this example, said assay and cell line thereof was used to measure effect of 1,2,3,4-tetrahydroisoquinoline derivatives on the activity of γ-secretase.
T-20 cells were routinely maintained in DMEM supplemented with 10% FBS, 200 μg/ml of hygromycin, 5 μg/ml of blasticidin, and 250 μg/ml of zeocin (DMEM-HZB). The stably transfected T-20 cells were detached from culture dishes by trypsinization, washed with PBS, and resuspended in DMEM-HZB, followed by plating onto 96-well microplates (2×10^4 cells/50 μl/well) and incubating at 37° C. for 24 hours. Preliminarily, compounds diluted in DMEM-HZB were added to a final concentration of 10 μM in the presence of tetracycline (1 μg/ml). Treatments were terminated after incubation at 37° C. for 24 hours by adding directly an equivalent volume of the Steady-Glo luciferase assay reagent (Promega), and measurements of luciferase signals from each well were performed immediately with the VictorLight microplate luminometer) (PerkinElmer). Triplicates of each compound treatment were assayed. Luciferase signal from the stable line without tetracycline induction and compound treatment was referred to as one-fold of activation. Parallel testing with a cell line constitutively expressing only the luciferase reporter gene (e.g., under control of a CMV promoter) was performed as a control.
Briefly, T-20 cell line was induced by tetracycline to express C99-GV protein fragment on cell membrane.

[2] = system: soluble amyloid precursor protein α (sAPPα); assay: Effect on secretion of sAPPα in γ-30 cells (Western blot, 6E10 antibody); format: cell-based, Chinese hamster; details: 10 μM; for protein content of sAPPα detected by Western blot: FIG. 4A
Procedure: It is known that monoamine oxidase B (MAO-B) inhibitor can activate directly or indirectly ERK-related pathway, so as to regulate amyloid precursor protein (APP) proteolytic process, which lead to modulate indirectly the secretion of soluble amyloid precursor protein α (sAPPα), and inhibit indirectly the production of insoluble β amyloid-peptides (Aβ). […] Thus, in this example, assay was carried out in γ-30 cells to examine the effect of 1,2,3,4-tetrahydroisoquinoline derivatives (12a, c and d) on the secretion of sAPPα.
As described in reference (3) and (6), briefly described below. PS70 Chinese hamster ovary cell (CHO cell) was used to perform a transfection to obtain γ-30 stably transfected cell line, γ-30 stably transfected cell line was used to express then full length amyloid precursor protein (APP) and human PS1, Aph-1α2, and Pen-2 proteins (Human PS, Aph-1α2, and Pen-2). This cell line could be used as the ideal model cell for detecting α-secretase degradation of amyloid precursor protein (APP).
Each group of corresponding cell lysate in example 5 was prepared to identical protein content. Proteins with different molecular weight were separated by means of electrophoresis on SDS-PAGE and Western Blot assay was carried using anti-Aβ1-17 monoclonal antibody (6E10) (purchased from US Chemicom Co.). In this example, γ-30 cell line treated with medium containing 1% DMSO was used as negative control group, γ-30 cell lines treated with medium containing different compounds (10 μM), 1% DMSO and 1 μg/ml of tetracycline were used as test group for different compounds, respectively.
γ-30 stably transfected cell line expresses full length amyloid precursor protein (APP) and human PS1, Aph-1α2, and Pen-2 proteins. When α-secretase cleavages amyloid precursor protein (APP), soluble amyloid precursor protein α (sAPPα) is formed, which can be used to detect whether a compound has an effect on the secretion of soluble amyloid precursor protein α (sAPPα). To this end, Western blot assay using Aβ1-17 monoclonal antibody (6E10) was carried out to detect soluble amyloid precursor protein α (sAPPα). […] Thereafter, results from Western blot assay were subjected to quantitatively statistical analysis.

[3] = T20, read-out: inhibition of the activity of γ-secretase compared with positive control group

Work on C#CCN1CCc2ccc(OC(=O)N(C)CC)cc2C1 [Compound 11a, 7-(N-Methyl-N-ethylcarbamoyloxy)-N-propargyl-1,2,3,4-tetrahydroisoquinoline] yielded an IC50 [1] of 21.5 ± 1 µM.
C#CCN1CCc2ccc(OC(=O)N3CCCC3)cc2C1 [Compound 11b, 7-(1-Pyrrolidinecarbamoyloxy)-N-propargyl-1,2,3,4-tetrahydroisoquinoline] gave an IC50 [1] of 13.9 ± 0.5 µM.
C#CCN1CCc2ccc(OC(=O)N3CCCCC3)cc2C1 [Compound 11c, 7-(1-Piperidinecarbamoyloxy)-N-propargyl-1,2,3,4-tetrahydroisoquinoline] showed an IC50 [1] of 15.7 ± 2.2 µM.
C#CCN1CCc2ccc(OC(=O)N3CCOCC3)cc2C1 [Compound 11d, 7-(1-Morpholinecarbamoyloxy)-N-propargyl-1,2,3,4-tetrahydroisoquinoline] showed an IC50 [1] of 18.7 ± 1.6 µM.
With CCN(C)C(=O)Oc1ccc2c(c1)CN(CC1CC1)CC2 [Compound 12a, 7-(N-Methyl-N-ethylcarbamoyloxy)-N-cyclopropylmethyl-1,2,3,4-tetrahydroisoquinoline] the “Activation of ERK1/2 (p-ERK/ERK, (%))” value (ERK1/2) was 131 ± 10%, the inhibition at 10 µM (γ-secretase; [3]) was 35 to 72% and the “protein content of sAPPα detected by Western blot” value (from here on “protein content of sAPPα detected”) [2] was “higher than that of negative control group”. For the same molecule, the “relative sAPPα secretion (quantified Western blot)” value (from here on “relative sAPPα secretion”) ([2]; FIG. 4B) was “could promote the secretion” and the IC50 [1] was 12.8 ± 2 µM.
O=C(Oc1ccc2c(c1)CN(CC1CC1)CC2)N1CCCC1 [Compound 12b, 7-(1-Pyrrolidinecarbamoyloxy)-N-cyclopropylmethyl-1,2,3,4-tetrahydroisoquinoline] gave an IC50 [1] of 14.9 ± 1.1 µM.
In the case of O=C(Oc1ccc2c(c1)CN(CC1CC1)CC2)N1CCCCC1 [Compound 12c, 7-(1-Piperidinecarbamoyloxy)-N-cyclopropylmethyl-1,2,3,4-tetrahydroisoquinoline], the “ability to activate ERK relative to rasagiline test group” value (ERK1/2; 10 μM each) is reported as 1.2 times, the “Activation of ERK1/2 (p-ERK/ERK, (%))” value (ERK1/2) is reported as 155 ± 28 % and the inhibition at 10 µM (γ-secretase; [3]) is reported as 35 to 72%. The “protein content of sAPPα detected” value [2] was “higher than that of negative control group”, the “promotion of sAPPα secretion compared with rasagiline test group” value ([2]; FIG. 4B) was “better promotion effect than rasagiline test group” and the “relative sAPPα secretion” value ([2]; FIG. 4B) was “could promote the secretion”. For the same molecule, the IC50 [1] was 11.6 ± 0.7 µM.
For O=C(Oc1ccc2c(c1)CN(CC1CC1)CC2)N1CCOCC1 [Compound 12d, 7-(1-Morpholinecarbamoyloxy)-N-cyclopropylmethyl-1,2,3,4-tetrahydroisoquinoline], the “Activation of ERK1/2 (p-ERK/ERK, (%))” value (ERK1/2) was 138 ± 39%, the inhibition at 10 µM (γ-secretase; [3]) was 35 to 72% and the “protein content of sAPPα detected” value [2] was “higher than that of negative control group”. For the same molecule, the “relative sAPPα secretion” value ([2]; FIG. 4B) was “could promote the secretion” and the IC50 [1] was 18.5 ± 0.8 µM.
In the case of C#CCN[C@@H]1CCc2ccccc21 [Rasagiline, rasagiline, reference compound], the “Activation of ERK1/2 (p-ERK/ERK, (%))” value (ERK1/2) is reported as 131 ± 14% and the inhibition at 10 µM (γ-secretase; T20, 10 μM, T-20 cells, 24 hours, tetracycline 1 μg/ml, FIG. 2, read-out: inhibition of the activity of γ-secretase compared with positive control group) is reported as 6 to 15%.
